From BigSolDB 2.1

O=C1NC(=O)c2ccccc21
solubility (mole fraction)
Conditions | in acetone | in acetonitrile | in ethanol | in ethyl acetate | in isobutanol | in isopropanol | in methanol | in n-butanol | in n-propanol | in toluene
283.15 K | 0.00783 | 0.00145 | 0.00116 | 0.00388 | 0.0014 | 0.00159 | 0.00129 | 0.00166 | 0.00156 | 0.000253
285.65 K | 0.00854 | 0.00161 | 0.00133 | 0.00441 | 0.00155 | 0.00175 | 0.00142 | 0.00185 | 0.00173 | 0.000295
288.15 K | 0.00935 | 0.0018 | 0.00151 | 0.00498 | 0.00171 | 0.00198 | 0.00162 | 0.00203 | 0.00188 | 0.000348
290.65 K | 0.0101 | 0.00209 | 0.0017 | 0.00557 | 0.0019 | 0.0022 | 0.00183 | 0.00221 | 0.00203 | 0.000401
293.15 K | 0.011 | 0.00238 | 0.00193 | 0.00615 | 0.00206 | 0.00247 | 0.0021 | 0.00243 | 0.00222 | 0.000456
295.65 K | 0.0119 | 0.00271 | 0.00215 | 0.00677 | 0.00222 | 0.0027 | 0.00236 | 0.00266 | 0.00242 | 0.000514
298.15 K | 0.0128 | 0.00305 | 0.0024 | 0.00749 | 0.00242 | 0.00298 | 0.0026 | 0.00285 | 0.00263 | 0.000577
300.15 K | 0.0137 | 0.00335 | 0.0026 | 0.00813 | 0.0026 | 0.0033 | 0.00288 | 0.00308 | 0.00282 | 0.000624
303.15 K | 0.0149 | 0.00385 | 0.00302 | 0.00879 | 0.00292 | 0.00365 | 0.00317 | 0.00336 | 0.00308 | 0.000694
305.65 K | 0.0159 | 0.0043 | 0.00335 | 0.0097 | 0.00315 | 0.00402 | 0.00346 | 0.00362 | 0.00339 | 0.000756
308.15 K | 0.017 | 0.00472 | 0.00369 | 0.0105 | 0.0034 | 0.00438 | 0.00373 | 0.00393 | 0.00369 | 0.000828
310.65 K | 0.0181 | 0.00518 | 0.00409 | 0.0114 | 0.00368 | 0.00479 | 0.00405 | 0.00424 | 0.00399 | 0.0009
313.15 K | 0.0194 | 0.00577 | 0.00462 | 0.0125 | 0.00398 | 0.00523 | 0.00445 | 0.00456 | 0.0043 | 0.000969
315.65 K | 0.0209 | 0.00631 | 0.00523 | 0.0138 | 0.00428 | 0.00575 | 0.00483 | 0.0049 | 0.00466 | 0.00105
318.15 K | 0.0221 | 0.00686 | 0.00582 | 0.0152 | 0.00469 | 0.00632 | 0.00525 | 0.0054 | 0.005 | 0.00114
